Reference: patent US11879137B2, “Treatment of type 1 diabetes and autoimmune diseases or disorders” (THE CHILDREN'S MEDICAL CENTER CORPORATION, priority 2017, dated 2024)

Columns and labels:
PD-L1 on CD34+ cells = assay: Prostaglandin library screening and FACS of PD-L1 on human CD34+ cells; type: cell-based; conditions: for capacity to upregulate PD-L1 (MFI) in library screening: 10 μM, CD34+ cells from T1D patients; for PD-L1 expression by FACS analysis: CD34+ cells, 10 μM pulsed at 24 and 48 hours
Excerpt: FIGS. 17A-17J show prostaglandins enhance PD-L1 expression on human CD34^+ cells. (FIG. 17A-17B) Results of screening of a prostaglandin small molecule library tested for the ability to upregulate PD-L1 (MFI) on CD34^+ cells obtained from T1D patients. The schematic of the experimental design is shown in (A). The 3-color coding shown in (FIG. 17B) represents lowest PD-L1 MFI values (blue), median PD-L1 MFI values (pink) and highest PD-L1 MFI values (red). (FIG. 17C-17D) Representative flow cytometric analysis and quantitative bar graph of PD-L1 expression on CD34^+ cells from T1D patients pre- and post-pharmacologic modulation with PGE2 as compared to CD34^+ cells obtained from healthy controls. (FIG. 17E) PD-L1 and CXCR4 expression (mRNA) fold change was quantified for CD34^+ cells pre- and post-modulation with PGE2. (FIG. 17F) Migration assay using CD34^+ cells pre- and post-modulation with PGE2. (FIG. 17G) Confocal imaging of CD34^+ cells pre- and post-modulation with PGE2, showing DAPI (in blue) and PD-L1 (in green) staining. 63× magnification. Scale bar, 50 (FIG. 17H) IDO-1 expression (mRNA) fold change was quantified for CD34^+ cells pre- and post-modulation with PGE2. (FIG. 17I-17J) Representative flow cytometric analysis (FIG. 17I) and quantitative bar graph (FIG. 17J) of PD-L1 expression on CD34^+ cells from T1D patients pre- and post-pharmacologic modulation with 4 small molecule PGE2 agonists. All data are expressed as mean±SEM. *P<0.05, **P<0.001. Abbreviations: MFI, mean fluorescence intensity.
Pharmacological modulation of human CD34+ cells. 1×105 of isolated human CD34+ HSPCs (purity 99%) were cultured in 200 μl of StemSpan SFEM II media (SEMCELL Technologies Inc., Cambridge, MA, USA), and each compound in the Prostaglandin Screening Library II (Cayman Chemicals, Ann Arbor, MI), was added individually at day 0 and at day 1 at a concentration of 10 μM as previously reported by the inventors and others (9, 21). In another assay, isolated CD34+ cells from freshly isolated human PBMCs or from cryopreserved PBMCs, and processed as described earlier, were cultured in the presence of a cocktail of cytokines containing: 10 μg/ml heparin (SEMCELL Technologies Inc., Cambridge, MA, USA), 10 ng/ml human SCF (Miltenyi Biotec, San Diego, CA), 20 ng/ml human TPO (Miltenyi Biotec, San Diego, CA), 10 ng/ml human FGF-1 (Miltenyi Biotec, San Diego, CA), 100 ng/ml IGFBP2 (R&D Systems, Inc., Minneapolis, MN), and 500 ng/ml Angptl3 (R&D Systems, Inc., Minneapolis, MN). PGE2 (PromoKine, PromoCell Gmbh, Germany) was added by pulsing the culture at 0, 24h, 72h and 6 days with 2 μl of diluted PGE2 (10 μM). Cells were cultured for 7 days at 37° C. in 5% CO2, and CD34+ cells were then subjected to FACS analysis and were run on a FACSCelesta™ (Becton Dickinson, Franklin Lakes, NJ). Data were analyzed using FlowJo software version 8.7.3 (Treestar, Ashland, OR). The different cytokines used here and their related concentration as well as the choice of the incubation timing was used as previously reported in the literature (22).
Prostaglandin library screening. PGE2 has been described as a small molecule known to enhance the homing and engraftment of HSPCs. It was therefore sought to screen all known types of prostaglandins using the Prostaglandin Screening Library II, which contains 64 small molecules. Each small molecule contained in the library was first screened for its capacity to upregulate PD-L1 in human CD34+ cells isolated from T1D patients (FIG. 17A-17B). CD34+ cells isolated from T1D patients were cultured in StemSpan SFEMII and pulsed with each PG (prostaglandin) small molecule contained in the aforementioned library at a concentration of 10 μM at 24 and 48h. Using FACS analysis, the MFI (mean fluorescence intensity) of PD-L1 expression was calculated following treatment with each small molecule used to modulate CD34+ cells as compared to untreated/unmodulated CD34+ cells (FIG. 17B). […]

CD34+ cells = assay: qRT-PCR of PD-L1, CXCR4 and IDO-1 in prostaglandin-modulated CD34+ cells; type: cell-based, human; conditions: CD34+ cells upon modulation
Procedure: qRT-PCR. RNA was extracted from CD34+ cells using Direct-Zol™ RNA Kits (Zymo, Irvine, CA, USA) and Trizol Reagent (Invitrogen Carlsbad, CA), RNA quality was assessed by Multiskan™ GO Microplate spectrophotometer and the ratios of absorbance at 260 nm and 280 nm were assessed for all the samples. Only samples with RNA ratios within 1.9 were included in the present study. cDNA synthesis was made from purified total RNA by reverse transcription using High capacity cDNA Reverse Transcription RETROscript® Kit (Thermo Fisher Scientific, Waltham, MA, USA) followed by a pre-amplification using Taqman PreAmp Kit (Applied Biosystems) according to the manufacturer's instructions. qRT-PCR analysis was performed using TaqMan assays (Life Technologies, Grand Island, NY) containing PCR primers and TaqMan probes according to the manufacturer's instructions. Normalized expression values were determined using the ΔCt method. Quantitative reverse transcriptase polymerase chain reaction (qRT-PCR) data were normalized for the expression of GAPDH. qRT-PCR reactions were performed in triplicate in a 96-well format using an Applied Biosystems 7900HT fast real-time PCR instrument. Relative expression was calculated using the comparative threshold cycle method as previously described (23, 24). For two-group comparisons, a Student's t test was employed. Reported below are the main characteristics of the primers used: […]
Prostaglandin library screening. PGE2 has been described as a small molecule known to enhance the homing and engraftment of HSPCs. It was therefore sought to screen all known types of prostaglandins using the Prostaglandin Screening Library II, which contains 64 small molecules. Each small molecule contained in the library was first screened for its capacity to upregulate PD-L1 in human CD34+ cells isolated from T1D patients (FIG. 17A-17B). CD34+ cells isolated from T1D patients were cultured in StemSpan SFEMII and pulsed with each PG (prostaglandin) small molecule contained in the aforementioned library at a concentration of 10 μM at 24 and 48h. Using FACS analysis, the MFI (mean fluorescence intensity) of PD-L1 expression was calculated following treatment with each small molecule used to modulate CD34+ cells as compared to untreated/unmodulated CD34+ cells (FIG. 17B). A heat map was generated depicting the degree to which each PG small molecule affected PD-L1 expression on CD34+ cells (FIG. 17B), thus allowing for the evaluation of PG candidates. Based on its ability to modulate PD-L1 expression, PGE2 was selected as a candidate for further study; in addition, PGE2 has been described in the literature and has been tested in clinical trials as a potential therapy for enhancing HSPC engraftment following cord blood transplantation (21). Isolated CD34+ cells from healthy control patients (CTRL) and from T1D patients were cultured in StemSpan SFEMII and pulsed with 10 μM of PGE2 at 24 hours and 48 hours. […] It was therefore sought to perform a migration assay in order to assess the homing properties of PGE2-treated CD34+ cells (FIG. 17F).

[1] = system: NEU1, MTOR, MYC, IGF1R, VEGFA, RB1 in MDA-MB-231 cells; assay: mRNA of validated miRNA target genes (transfection control) in MDA-MB-231 cells; type: cell-based, human; conditions: VEGFA or RB1 as named for each agent, 48 h after transfection
Procedure: MDA-MB-231 breast cancer cells were cultured in DMEM high glucose medium (Gibco, Thermo Fisher Scientific; Waltham, MA USA) supplemented with 10% heat-inactivated fetal calf serum (Gibco, Thermo Fisher Scientific), 100 units/ml penicillin, 100 μg/ml streptomycin, and 2 mM L-glutamine. 2×10^5 cells were seeded in each well of a 6-well plate and transfected with 10 pmol of the miRNA mimic or miRNA mimic negative control, or 100 pmol of the anti-miR or anti-miR negative control (all from Exiqon, Qiagen) using the Lipofectamine RNAiMAX transfection reagent (Invitrogen, Thermo Fisher Scientific) in a final culture medium volume of 2 ml, following manufacturer's instructions. […] Forty-eight hours after transfection, cells were collected from each well for RNA extraction, cell lysate preparation and FACS analysis. RNA was extracted using Direct-zol RNA miniprep plus (Zymo research, Irvine, CA, USA) and RNA quality was checked and then retro-transcribed using RETROscript® Kit (Fisher Scientific) following manufacturer's instructions. Cell lysates were obtained in RIPA buffer (50 mmol/1 Tris-HCl, pH 8.0, 1% Triton-x, 0.5% sodium deoxycholate, 0.1% SDS, 150 mmol/1 sodium chloride) with protease inhibitor cocktail (Roche).
qRT-PCR for PD-L1 analysis was performed on retro-transcribed cDNA using SYBR® Green dye (Life Technologies, Thermo Fisher Scientific). Amplification was performed on a QuantStudio S6 Real Time PCR system (Thermo Fisher Scientific). To confirm a successful transfection, the mRNA level of genes known to be controlled by the targeted miRNAs were evaluated by SYBR® Green dye (Life Technologies, Thermo Fisher Scientific) according to the manufacturer's instructions. Normalized expression values were determined using the ΔΔCt method in treated as compared to negative treated samples, using GAPDH mRNA as endogenous reference. The miRNA-targeted genes tested, along with forward and reverse primer sequences used for their amplification, are listed in Table 13.
To determine if targeting the miRNA network decreases PD-L1 expression in human cancer setting, PD-L1-expressing MDA-MB-231 human breast cancer cells were transfected with a set of miRNA mimics or anti-miRs to either increase or decrease the function of a set of miRNAs not previously known to affect PD-L1 (miR-125b, miR-99a, miR-744, mir-599, miR-511, miR-206, miR-26b). The effect of treatment with miRNA mimics and anti-miRs on the percentage of PD-L1-expressing cells, as well as on PD-L1 mRNA and protein levels, was investigated. miRNA mimic/anti-miR treated-cells were compared to corresponding mimic/anti-miR negative control-treated cells by flow cytometric analysis, Real Time PCR and western blot to assess percentage of PD-L1-expressing cells, PD-L1 mRNA, and PD-L1 protein levels, respectively. A successful miRNA mimic/anti-miR transfection was confirmed by the detection of changed mRNA levels of the validated miRNA targets NEU1 (for miR-125b mimic), MTOR (for miR-99a mimic), MYC (for miR-744 mimic and miR-599 anti-miR), IGF1R (for miR-511 mimic), VEGFA (for miR-206 anti-miR) and RB1 (for miR-26b anti-miR) in treated cells (FIG. 22A). […] Lysates of miR-511 mimic and miR-206 anti-miR treated cells were not available for western blot analysis.

In the case of `CCCCC[C@H](O)/C=C/[C@H]1[C@H](O)CC(=O)[C@@H]1CC(=O)CCCCC(=O)O` [6-keto PGE1], the “capacity to upregulate PD-L1 (MFI) in library screening” value (shortened to “capacity to upregulate PD-L1 (MFI)”) (PD-L1 on CD34+ cells) is reported as “strongest capacity” and the “PD-L1 expression by FACS analysis” value (PD-L1 on CD34+ cells) is reported as “robust upregulation”.
For `CCCCC(C)(C)[C@H](O)/C=C/[C@H]1[C@H](O)CC(=O)[C@@H]1C/C=C\CCCC(=O)Oc1ccc(NC(=O)c2ccc(NC(C)=O)cc2)cc1` [16,16-dimethyl PGE2 4-(4-acetamidobenzamido) phenyl ester], the “capacity to upregulate PD-L1 (MFI)” value (PD-L1 on CD34+ cells) was “strongest capacity”, the “PD-L1 expression by FACS analysis” value (PD-L1 on CD34+ cells) was “robust upregulation” and the “PD-L1 mRNA expression by RT-PCR” value (CD34+ cells) was “marked upregulation”.
`CCCCCCC[C@H](O)/C=C/[C@H]1[C@H](O)CC(=O)[C@@H]1C/C=C\CCCC(=O)O` [20-ethyl PGE2] was tested, and the “capacity to upregulate PD-L1 (MFI)” value (PD-L1 on CD34+ cells) was “strongest capacity”, the “PD-L1 expression by FACS analysis” value (PD-L1 on CD34+ cells) was “robust upregulation” and the “PD-L1 mRNA expression by RT-PCR” value (CD34+ cells) was “marked upregulation”.
For “miR-26b anti-miR: Anti-miR, CUAUCCUGAAUUACUUGA, SEQ ID NO: 8 (listed as RNA, chemistry not given here)”, the “mRNA levels of the validated miRNA target” value (from here on “mRNA levels”) [1] was “changed”.
“miR-99a mimic: miRNA mimic, AACCCGUAGAUCCGAUCUUGUG, SEQ ID NO: 3 (listed as RNA, chemistry not given here)” was tested, and the “mRNA levels” value [1] was “changed”.
With “miR-206 anti-miR: Anti-miR, CACACACUUCCUUACAUUCC, SEQ ID NO: 7 (listed as RNA, chemistry not given here)” the “mRNA levels” value [1] was “changed”.
With “miR-511 mimic: miRNA mimic, AAUGUGUAGCAAAAGACAGA, SEQ ID NO: 2 (listed as RNA, chemistry not given here)” the “mRNA levels” value [1] was “changed”.
For “miR-744 mimic: miRNA mimic, CUGUUGCCACUAACCUCAACCU, SEQ ID NO: 4 (listed as RNA, chemistry not given here)”, the “mRNA levels” value [1] was “changed”.
